According to patent US20090292025A1, “Novel crystalline forms of armodafinil and preparation thereof” (Teva Pharmaceutical Industries Ltd., priority 2006, published 2009):

Tests used:
[1] = Prisinzano et al., Tetrahedron: Asymmetry (2004); cited from earlier work
[2] = Exposure to 100% relative humidity, followed by TGA and XRD; type: physicochemical
Protocol: Another embodiment of the invention encompasses armodafinil monohydrate. Armodafinil monohydrate may be prepared by a method comprising exposing armodafinil Form 1 to 100% relative humidity at a temperature of about 30° C. to about 60° C. for at least 7 days. Preferably, the heating is to a temperature of about 30° C. to about 40° C. In one example 200 mg of armodafinil Form I is heated at 30° C. in 100% relative humidity for 13 days.
X-Ray powder diffraction data were obtained by using methods known in the art. A SCINTAG powder X-ray diffractometer model X′TRA equipped with a solid-state detector was employed with copper radiation of 1.5418 Å and a round aluminum sample holder with zero background. The scanning parameters included: range: 2-40 degrees two-theta; scan mode: continuous scan; step size: 0.05 deg.; and a rate of 5 deg/min. All peak positions are within ±0.2 degrees two theta.
TGA analysis was performed using a Metler M3 thermo gravimeter. Samples of about 8 mg were analyzed in standard 150 μl alumina crucibles covered by lids with 1 hole. Each sample was scanned at a rate of 10° C./min from 25° C. to 200° C. A blank was subtracted from the sample. The oven was constantly purged with nitrogen gas at a flow rate of 40 ml/min.
Armodafinil Form A (200 mg) was exposed to 100% humidity for 7 days at 30° C. The XRD diffractogram of armodafinil Form I is illustrated in FIG. 3.

[3] = Stability of the crystal form under pressure of 2-10 tons (tablet compression); type: physicochemical
Protocol: Form A is stable by pressure of about 2-10 tons which is used in the compression stage during the tablet preparation.
A further method of preparing armodafinil Form I comprises submitting armodafinil Form IV to a pressure of about 2 tons to about 10 tons to obtain armodafinil Form I. Preferably, the pressure is applied for a period of about 1 minute to about 5 minutes. The time will depend upon the amount of armodafinil Form IV; for example, armodafinil 100 mg of Form IV is pressed with 10 tons for 1 minute.
Armodafinil Form IV (100 mg) was pressed with pressure of 2 tons or 10 tons for 1 min forming a pressed sample.

[4] = Grinding with mortar and pestle, XRD of the ground sample; type: physicochemical; details: 100 mg ground with mortar and pestle for a few minutes
Protocol: Another method for preparing armodafinil Form I comprises grinding armodafinil Form IV. Preferably, the grinding is carried out over a period of about 1 minute to about 5 minutes, more preferably, about 1 min. Depending on the amount of armodafinil Form IV, different grinding methods may be used. For example, 200 mg of armodafinil Form IV is ground with a mortar and pestle for 1 minute.
Armodafinil Form IV (100 mg) was ground with mortar and pestle for a few minutes forming a ground sample.

[5] = Heating at 145° C., XRD of the heated sample; type: physicochemical; details: 200 mg heated at 145° C. for 10 min
Protocol: Armodafinil Form I may also be prepared by drying armodafinil Form IV. Preferably, the process comprises heating armodafinil Form IV to a temperature of about 120° C. to 150° C. for at least about 10 minutes. Preferably, the heating is to a temperature of about 145° C. Preferably, the heating is conducted over a period of about 15 minutes about 30 minutes. For example, armodafinil Form IV 200 mg is heated for about 10 minutes. Form IV may be prepared according to WO 2004/060858.
Armodafinil Form IV (200 mg) was heated at 145° C. for 10 min forming a heated sample.

[6] = Form A exposed to 100% humidity for 7 days at 30° C.
[7] = Form A, Initial (before exposure)
[8] = Form I exposed to 100% Relative Humidity at 30° C. for 13 days
[9] = Form I exposed to 100% Relative Humidity at 60° C. for 13 days
[10] = Form I, Initial (Table 1, 30° C. study)
[11] = Form I, Initial (Table 2, 60° C. study)

NC(=O)C[S@@+]([O-])C(c1ccccc1)c1ccccc1 (single isomer, unassigned) [S enantiomer]
Elimination from the body compared with the R enantiomer [1]: three times faster

NC(=O)C[S@@+]([O-])C(c1ccccc1)c1ccccc1 [Armodafinil Form A, 2-[(R)-(diphenylmethyl)sulfinyl]acetamide]
% Weight loss (by TGA) [2, 6]: 3.5% | Crystal form (by XRD) [2, 6]: Form I | % Weight loss (by TGA) [2, 7]: 0.3% | Crystal form (by XRD) [2, 7]: Form A | Stability by pressure ([3]; pressure of about 2-10 tons, as used in the compression stage of tablet preparation): stable

NC(=O)C[S@@+]([O-])C(c1ccccc1)c1ccccc1 [Armodafinil Form IV, 2-[(R)-(diphenylmethyl)sulfinyl]acetamide]
Crystal form (by XRD) of pressed sample ([3]; 100 mg pressed with 2 tons or 10 tons for 1 min): Form I | Crystal form (by XRD) of ground sample [4]: Form I | Crystal form (by XRD) of heated sample [5]: Form I

NC(=O)C[S@@+]([O-])C(c1ccccc1)c1ccccc1 [armodafinil Form I, 2-[(R)-(diphenylmethyl)sulfinyl]acetamide]
% Weight loss (by TGA) [2, 8]: 5.6% | Crystal form (by XRD) [2, 8]: Form I | % Weight loss (by TGA) [2, 9]: 7.4% | Crystal form (by XRD) [2, 9]: Form I | % Weight loss (by TGA) [2, 10]: 0.1% | Crystal form (by XRD) [2, 10]: Form I | % Weight loss (by TGA) [2, 11]: 0.1% | Crystal form (by XRD) [2, 11]: Form I
